Experimental data taken from the NIST ThermoML archive (doi:10.1016/j.jct.2008.10.010).

Assay: molar heat capacity at constant pressure; xn = mol fraction of the nth substance listed
Conditions: 101.3 kPa, Liquid, Small sample (50 mg) DSC

CCC(C)(C)O [2-methylbutan-2-ol] + CCCCCCC
molar heat capacity at constant pressure [J/K/mol]
Conditions	309.15 K	310.16 K	311.14 K	312.15 K	313.16 K	314.14 K	315.15 K	316.16 K	317.14 K	318.15 K
x1 = 0.0061	–	229.11	229.41	229.87	230.16	230.54	231.04	231.41	231.74	232.22
x1 = 0.0249	–	232.84	233.01	233.27	233.44	233.76	234.1	234.24	234.45	234.79
x1 = 0.0494	–	238.76	238.96	239.19	239.44	239.64	239.85	240.04	240.17	240.39
x1 = 0.1	–	246.57	246.82	247.28	247.62	247.94	248.26	248.61	248.85	249.22
x1 = 0.1547	–	251.57	252.06	252.56	253.04	253.52	254.01	254.44	254.85	255.3
x1 = 0.1999	–	254.63	255.2	255.82	256.43	257.01	257.6	258.06	258.58	259.15
x1 = 0.2993	–	259.26	259.96	260.68	261.51	262.2	262.9	263.57	264.25	264.95
x1 = 0.4051	–	261.91	262.71	263.58	264.53	265.3	266.17	266.93	267.74	–
x1 = 0.4986	262.32	263.33	264.23	265.2	266.22	267.11	268.03	268.88	269.71	–
x1 = 0.5981	262.83	263.88	264.84	265.84	266.9	267.83	268.84	269.72	270.72	–
x1 = 0.7015	262.76	263.9	264.89	265.94	267.08	268.09	269.07	270.07	271.01	–
x1 = 0.8023	261.98	263.1	264.11	265.15	266.27	267.27	268.34	269.26	270.34	–
x1 = 0.9139	260.52	261.67	262.65	263.76	264.91	265.99	267.02	268	269.05	–
x1 = 0.9609	259.67	260.83	261.81	262.89	264	265.01	266.09	267.03	268.07	–
